Data reported in patent US10766903B2 (ALMAC DISCOVERY LIMITED, priority 2016, dated 2020).
Where a name gives a salt, the structure may show the parent alone.

The molecules below were run against USP7 (Homo sapiens (Human), UniProt Q93009) (assay: USP7 fluorescence polarisation (FP) biochemical assay, ubiquitin-Lys-TAMRA substrate). Details: not given.
USP7, sequence (Q93009 whole entry): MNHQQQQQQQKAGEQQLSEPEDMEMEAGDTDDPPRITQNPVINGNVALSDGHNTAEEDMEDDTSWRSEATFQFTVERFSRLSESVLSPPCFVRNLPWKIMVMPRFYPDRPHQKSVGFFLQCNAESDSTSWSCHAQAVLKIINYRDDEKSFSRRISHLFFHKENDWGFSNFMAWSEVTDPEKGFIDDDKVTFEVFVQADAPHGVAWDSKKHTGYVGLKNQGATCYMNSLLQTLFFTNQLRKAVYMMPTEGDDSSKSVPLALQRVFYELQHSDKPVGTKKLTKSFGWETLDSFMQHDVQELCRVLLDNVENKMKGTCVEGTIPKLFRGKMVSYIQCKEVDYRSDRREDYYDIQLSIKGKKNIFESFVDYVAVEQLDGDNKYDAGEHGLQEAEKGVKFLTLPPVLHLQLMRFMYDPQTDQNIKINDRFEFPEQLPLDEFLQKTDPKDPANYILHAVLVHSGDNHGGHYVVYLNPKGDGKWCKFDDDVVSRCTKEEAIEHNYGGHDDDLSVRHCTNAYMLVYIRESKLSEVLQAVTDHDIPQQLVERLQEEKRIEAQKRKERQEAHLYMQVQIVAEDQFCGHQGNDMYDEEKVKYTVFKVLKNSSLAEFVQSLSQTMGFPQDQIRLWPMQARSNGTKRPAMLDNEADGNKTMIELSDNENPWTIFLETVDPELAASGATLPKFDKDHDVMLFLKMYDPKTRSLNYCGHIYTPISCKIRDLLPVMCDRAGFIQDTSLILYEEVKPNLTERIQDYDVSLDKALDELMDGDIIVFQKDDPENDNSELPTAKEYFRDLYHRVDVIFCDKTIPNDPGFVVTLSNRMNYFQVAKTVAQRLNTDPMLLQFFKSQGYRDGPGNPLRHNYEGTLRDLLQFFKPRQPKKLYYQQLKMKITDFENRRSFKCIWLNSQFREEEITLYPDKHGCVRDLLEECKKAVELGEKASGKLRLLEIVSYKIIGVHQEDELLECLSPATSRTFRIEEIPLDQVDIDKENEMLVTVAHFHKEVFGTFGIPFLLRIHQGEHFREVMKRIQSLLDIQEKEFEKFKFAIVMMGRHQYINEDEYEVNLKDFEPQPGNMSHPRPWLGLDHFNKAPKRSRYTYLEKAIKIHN
How it was run: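 Full-length His6-USP7 (2.5 nM) incubated ± inhibitor (8-point dilutions, 200 to 0.1 μM before addition) in 50 mM HEPES pH 7.2, 150 mM NaCl, 0.5 mM EDTA, 5 mM DTT, 0.05% BSA, 0.05% CHAPS. Ubiquitin-Lys-TAMRA cleavage followed by FP (ex 530/em 575 nm) every 15 min for 1.5 h; normalised to no-compound control.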
For `C[C@H](CC(=O)N1CCC(O)(Cn2cnc(OCCN(C)C)cc2=O)CC1)c1ccccc1` [Example 10, (R)-6-(2-(Dimethylamino)ethoxy)-3-((4-hydroxy-1-(3-phenylbutanoyl)piperidin-4-yl)methyl)pyrimidin-4(3H)-one], the IC50 was 1000 to 200000 nM.

Same assay, conditions: Table 4, biochemical assay; average of at least duplicate experiments; read-out: USP7 IC50
Molecule `Cn1nc2c(=O)n(CC3(O)CCN(C(=O)C[C@H](c4cc(F)cc(F)c4)C(F)(F)F)CC3)cnc2c1-c1ccc(CN)cc1` [Example 84, (R)-3-(4-(Aminomethyl)phenyl)-6-((1-(3-(3,5-difluorophenyl)-4,4,4-trifluorobutanoyl)-4-hydroxypiperidin-4-yl)methyl)-2-methyl-2H-pyrazolo[4,3-d]pyrimidin-7(6H)-one] has an IC50 of 1000 to 200000 nM. `Cn1nc2c(=O)n(CC3(O)CCN(C(=O)C4(C)CC4)CC3)cnc2c1-c1ccc(CN)cc1` [Example 237, 3-(4-(Aminomethyl)phenyl)-6-((4-hydroxy-1-(1-methylcyclopropane-1-carbonyl)piperidin-4-yl)methyl)-2-methyl-2,6-dihydro-7H-pyrazolo[4,3-d]pyrimidin-7-one] showed an IC50 of 1000 to 200000 nM. `C[C@H](CC(=O)N1CCC(O)(Cn2cnc3c(ncn3-c3ccc(CN)cc3)c2=O)CC1)c1ccccc1` [Example 68, (R)-9-(4-(Aminomethyl)phenyl)-1-((4-hydroxy-1-(3-phenylbutanoyl)piperidin-4-yl)methyl)-1H-purin-6(9H)-one] was tested, and the IC50 was < 250 nM. Work on `COCC1CN(c2cc(=O)n(CC3(O)CCN(C(=O)C[C@@H](C)c4ccccc4)CC3)cn2)C1` [Example 141, (R)-3-((4-hydroxy-1-(3-phenylbutanoyl)piperidin-4-yl)methyl)-6-(3-(methoxymethyl)azetidin-1-yl)pyrimidin-4(3H)-one] yielded an IC50 of 1000 to 200000 nM. Molecule `C[C@H](CC(=O)N1CCC(O)(Cn2cnc(NCc3ccc(Cl)cc3)cc2=O)CC1)c1ccccc1` [Example 157, (R)-6-((4-chlorobenzyl)amino)-3-((4-hydroxy-1-(3-phenylbutanoyl)piperidin-4-yl)methyl)pyrimidin-4(3H)-one] has an IC50 of 1000 to 200000 nM. With `C[C@H](CC(=O)N1CCC(O)(Cn2cnc(N3CCCC3CNC(=O)OC(C)(C)C)cc2=O)CC1)c1ccccc1` (stereo partly drawn) [Example 147, tert-butyl ((1-(1-((4-hydroxy-1-((R)-3-phenylbutanoyl)piperidin-4-yl)methyl)-6-oxo-1,6-dihydropyrimidin-4-yl)pyrrolidin-2-yl)methyl)carbamate] the IC50 was 1000 to 200000 nM. `O=C(c1cnc(C2CC2)o1)N1CCC(O)(Cn2cnc3c(cc(Cl)n3-c3cccc(C4CC4)c3)c2=O)CC1` [Example 217, 6-Chloro-3-((1-(2-cyclopropyloxazole-5-carbonyl)-4-hydroxypiperidin-4-yl)methyl)-7-(3-cyclopropylphenyl)-3H-pyrrolo[2,3-d]pyrimidin-4(7H)-one] was tested, and the IC50 was < 250 nM. For `Cn1nccc1-c1cc(-n2c(Cl)cc3c(=O)n(CC4(O)CCN(C(=O)c5cnc(C6CC6)o5)CC4)cnc32)ccc1F` [Example 230, 6-Chloro-3-((1-(2-cyclopropyloxazole-5-carbonyl)-4-hydroxypiperidin-4-yl)methyl)-7-(4-fluoro-3-(1-methyl-1H-pyrazol-5-yl)phenyl)-3H-pyrrolo[2,3-d]pyrimidin-4(7H)-one], the IC50 was 250 to 999 nM. `Cn1nc2c(=O)n(CC3(O)CCN(C(=O)C[C@H](c4ccccc4)C(F)(F)F)CC3)cnc2c1-c1ccc([C@H](N)C(F)F)cc1` [Example 122, 3-(4-((S)-1-Amino-2,2-difluoroethyl)phenyl)-6-((4-hydroxy-1-((R)-4,4,4-trifluoro-3-phenylbutanoyl)piperidin-4-yl)methyl)-2-methyl-2H-pyrazolo[4,3-d]pyrimidin-7(6H)-one] was tested, and the IC50 was < 250 nM. For `Cn1nc2c(=O)n(CC3(O)CCN(C(=O)C[C@H](c4ccccc4)C(F)F)CC3)cnc2c1-c1ccc(CN)cc1` [Example 80, (R)-3-(4-(Aminomethyl)phenyl)-6-((1-(4,4-difluoro-3-phenylbutanoyl)-4-hydroxypiperidin-4-yl)methyl)-2-methyl-2H-pyrazolo[4,3-d]pyrimidin-7(6H)-one], the IC50 was < 250 nM. For `CN(C)Cc1ccc(-c2c3ncn(CC4(O)CCN(C(=O)C[C@H](c5ccccc5)C(F)(F)F)CC4)c(=O)c3nn2C)cc1` [Example 79, (R)-3-(4-((Dimethylamino)methyl)phenyl)-6-((4-hydroxy-1-(4,4,4-trifluoro-3-phenylbutanoyl)piperidin-4-yl)methyl)-2-methyl-2H-pyrazolo[4,3-d]pyrimidin-7(6H)-one], the IC50 was < 250 nM. Molecule `C[C@H](CC(=O)N1CCC(O)(Cn2cnc(N3CCN(C)C(=O)C3)cc2=O)CC1)c1ccccc1` [Example 168, (R)-3-((4-hydroxy-1-(3-phenylbutanoyl)piperidin-4-yl)methyl)-6-(4-methyl-3-oxopiperazin-1-yl)pyrimidin-4(3H)-one] has an IC50 of 1000 to 200000 nM. For `COc1ccc(-n2c(Cl)cc3c(=O)n(CC4(O)CCN(C(=O)C5(C)CC5)CC4)cnc32)cc1OC` [Example 239, 6-Chloro-7-(3,4-dimethoxyphenyl)-3-((4-hydroxy-1-(1-methylcyclopropane-1-carbonyl)piperidin-4-yl)methyl)-3,7-dihydro-4H-pyrrolo[2,3-d]pyrimidin-4-one], the IC50 was < 250 nM. Work on `C[C@H](CC(=O)N1CCC(O)(Cn2cnc(N)cc2=O)CC1)c1ccccc1` [Example 5, (R)-6-Amino-3-((4-hydroxy-1-(3-phenylbutanoyl)piperidin-4-yl)methyl)pyrimidin-4(3H)-one] yielded an IC50 of 1000 to 200000 nM. For `C=C(C)[C@@H](CC(=O)N1CCC(O)(Cn2cnc3c(-c4ccccc4)n(C)nc3c2=O)CC1)C(F)(F)F` [Example 36, (R)-6-((4-Hydroxy-1-(4-methyl-3-(trifluoromethyl)pent-4-enoyl)piperidin-4-yl)methyl)-2-methyl-3-phenyl-2H-pyrazolo[4,3-d]pyrimidin-7(6H)-one], the IC50 was 1000 to 200000 nM. Work on `CN(C)CC#Cc1c2ncn(CC3(O)CCN(C(=O)C[C@H](c4ccccc4)C(F)(F)F)CC3)c(=O)c2nn1C` [Example 135, (R)-3-(3-(Dimethylamino)prop-1-yn-1-yl)-6-((4-hydroxy-1-(4,4,4-trifluoro-3-phenylbutanoyl)piperidin-4-yl)methyl)-2-methyl-2H-pyrazolo[4,3-d]pyrimidin-7(6H)-one] yielded an IC50 of 1000 to 200000 nM. `C[C@H](CC(=O)N1CCC(O)(Cn2cnc(N[C@@H]3CCNC3)cc2=O)CC1)c1ccccc1` [Example 110, 3-((4-Hydroxy-1-((R)-3-phenylbutanoyl)piperidin-4-yl)methyl)-6-(((R)-pyrrolidin-3-yl)amino)pyrimidin-4(3H)-one] was tested, and the IC50 was 250 to 999 nM. In the case of `Cn1nc2c(=O)n(CC3(O)CCN(C(=O)C[C@H](c4ccccc4)C(F)(F)F)CC3)cnc2c1-c1ccccc1` [Example 37, (R)-6-((4-Hydroxy-1-(4,4,4-trifluoro-3-phenylbutanoyl)piperidin-4-yl)methyl)-2-methyl-3-phenyl-2H-pyrazolo[4,3-d]pyrimidin-7(6H)-one], the IC50 is reported as 250 to 999 nM. Work on `C[C@H](CC(=O)N1CCC(O)(Cn2cnc(N3CC(C(=O)NCC4CC4)C3)cc2=O)CC1)c1ccccc1` [Example 164, (R)-N-(cyclopropylmethyl)-1-(1-((4-hydroxy-1-(3-phenylbutanoyl)piperidin-4-yl)methyl)-6-oxo-1,6-dihydropyrimidin-4-yl)azetidine-3-carboxamide] yielded an IC50 of 1000 to 200000 nM. For `O=C(CCC1CCC1)N1CCC(O)(Cn2cnc(NCCN3CCCC3)cc2=O)CC1` [Example 183, 3-((1-(3-Cyclobutylpropanoyl)-4-hydroxypiperidin-4-yl)methyl)-6-((2-(pyrrolidin-1-yl)ethyl)amino)pyrimidin-4(3H)-one], the IC50 was 1000 to 200000 nM. Work on `C[C@H](CC(=O)N1CCC(O)(Cn2cnc(N(CCO)Cc3cccnc3)cc2=O)CC1)c1ccccc1` [Example 177, (R)-3-((4-hydroxy-1-(3-phenylbutanoyl)piperidin-4-yl)methyl)-6-((2-hydroxyethyl)(pyridin-3-ylmethyl)amino)pyrimidin-4(3H)-one] yielded an IC50 of 1000 to 200000 nM. For `CC1(C(=O)N2CCC(O)(Cn3cnc4c(cc(Cl)n4-c4ccc(CN)cc4)c3=O)CC2)CC1` [Example 241, 7-(4-(Aminomethyl)phenyl)-6-chloro-3-((4-hydroxy-1-(1-methylcyclopropane-1-carbonyl)piperidin-4-yl)methyl)-3,7-dihydro-4H-pyrrolo[2,3-d]pyrimidin-4-one], the IC50 was < 250 nM. With `C[C@H](CC(=O)N1CCC(O)(Cn2cnc(NCc3ccc4c(c3)OCCO4)cc2=O)CC1)c1ccccc1` [Example 162, (R)-6-(((2,3-dihydrobenzo[b][1,4]dioxin-6-yl)methyl)amino)-3-((4-hydroxy-1-(3-phenylbutanoyl)piperidin-4-yl)methyl)pyrimidin-4(3H)-one] the IC50 was 1000 to 200000 nM. `C[C@H](CC(=O)N1CCC(O)(Cn2cnc(N(C)CCO)cc2=O)CC1)c1ccccc1` [Example 166, (R)-3-((4-hydroxy-1-(3-phenylbutanoyl)piperidin-4-yl)methyl)-6-((2-hydroxyethyl)(methyl)amino)pyrimidin-4(3H)-one] gave an IC50 of 1000 to 200000 nM. With `C[C@H](CC(=O)N1CCC(O)(Cn2cnc(NC3CCOC3)cc2=O)CC1)c1ccccc1` (stereo partly drawn) [Example 151, 3-((4-hydroxy-1-((R)-3-phenylbutanoyl)piperidin-4-yl)methyl)-6-((tetrahydrofuran-3-yl)amino)pyrimidin-4(3H)-one] the IC50 was 1000 to 200000 nM. `Cn1nc2c(=O)n(CC3(O)CCN(C(=O)C4(C)CC4)CC3)cnc2c1-c1ccccc1` [Example 191, 6-((4-Hydroxy-1-(1-methylcyclopropanecarbonyl)piperidin-4-yl)methyl)-2-methyl-3-phenyl-2H-pyrazolo[4,3-d]pyrimidin-7(6H)-one] gave an IC50 of 1000 to 200000 nM.

Same assay, conditions: USP7 IC50, Table 4, biochemical assay; average of at least duplicate experiments
`C[C@H](CC(=O)N1CCC(O)(Cn2cnc(N3CCC(N)CC3)cc2=O)CC1)c1ccccc1` [Example 48, (R)-6-(4-Aminopiperidin-1-yl)-3-((4-hydroxy-1-(3-phenylbutanoyl)piperidin-4-yl)methyl)pyrimidin-4(3H)-one hydrochloride] was tested, and the IC50 was 250 to 999 nM.
